This note sets out measurements from ChEMBL document CHEMBL4619717, “Novel quinolin-4(1H)-one derivatives as multi-effective aldose reductase inhibitors for treatment of diabetic complications: Synthesis, biological evaluation, and molecular modeling studies” (Bioorg Med Chem Lett, 2020).

A short description of series [1]: Antioxidant activity assessed as DPPH radical scavenging activity at 100 uM relative to control. The series is classed as functional. Background: Loss of DPPH colour is used to gauge radical scavenging.
Series [2] in a line: Antioxidant activity assessed as DPPH radical scavenging activity at 50 uM relative to control. Type of series: functional.
The nature of series [3]: Antioxidant activity assessed as DPPH radical scavenging activity at 10 uM relative to control. The series is classed as functional.
Series [4] concerns the target Aldo-keto reductase family 1 member B1 (Rattus norvegicus, UniProt P07943). Kind of series: Inhibition of AKR1B1 in rat lenses.
For series [5], the target named is T1, AKR1A1 (aldo-keto reductase family 1 member A1) (Rattus norvegicus, UniProt P51635).
T1 sequence (P51635 whole entry): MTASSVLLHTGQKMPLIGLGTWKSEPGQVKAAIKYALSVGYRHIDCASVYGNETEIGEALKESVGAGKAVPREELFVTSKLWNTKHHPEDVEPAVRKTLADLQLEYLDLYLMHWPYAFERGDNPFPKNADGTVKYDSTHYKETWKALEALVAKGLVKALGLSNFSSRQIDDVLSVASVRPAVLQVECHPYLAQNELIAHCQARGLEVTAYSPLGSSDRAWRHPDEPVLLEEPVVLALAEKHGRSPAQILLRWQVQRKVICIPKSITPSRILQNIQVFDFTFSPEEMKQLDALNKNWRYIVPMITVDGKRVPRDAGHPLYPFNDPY
Nature of the series: Inhibition of AKR1A1 in rat kidney at 10 uM relative to control.

Series [6] in a line: n-octanol/aqueous buffer distribution coefficient, logD of compound at pH 7.4 by shake flask assay based HPLC-MS analysis. The series is classed as physicochemical.

SMILES strings stand for the structures. pIC50: −log10 of the molar value.

For `Cc1c(C)c2c(c(C)c1O)CCC(C)(C(=O)O)O2` (stereo not drawn), the Activity in series [1] is 94.2%; in series [2], 84.1%; in series [3], 77.2%.

The term pIC50 denotes the negative decadic logarithm of the IC50, by convention in mol/L. The low end stands for a high IC50, the high end for a low IC50. By inhibition is commonly meant the relative decrease from the control value, in per cent. Lower therefore signals a weak effect. In series [4], `O=C(O)c1cn(Cc2ccc(Cl)cc2)c2ccccc2c1=O` showed a pIC50 of 6.49. In series [5], this compound gave an inhibition at 10 µM of 18.3%. For the same compound, the Activity in series [1] is 28.7%.

The compound `CS(=O)(=O)NC(=O)c1cn(Cc2cc(O)cc(O)c2)c2ccccc2c1=O` gave a pIC50 in series [4] of 6.95. The inhibition at 10 µM in series [5] came out at 24.7%. The Activity in series [1] was determined as 79.4%; in series [2], 64.7%; in series [3] it was 33.6%.

In series [4], `O=C(NO)c1cn(Cc2ccc(Cl)cc2)c2ccccc2c1=O` had a pIC50 of 6.20. This compound registered an inhibition at 10 µM in series [5] of 26.5%. In series [1], the Activity was 31.7%.

Consider `O=C(O)c1cn(Cc2ccc(O)cc2)c2ccccc2c1=O`, for which the negative-log IC50 (pIC50) in series [4] is 7.01. This compound registered an inhibition at 10 µM in series [5] of 37.5%. Further, the Activity worked out at 62.7% in series [1], 30.4% in series [2] and 14.6% in series [3].

The logD is the decadic logarithm of the distribution of all forms, ionised or not, between an organic phase and buffer at a given pH. A lower logD goes with lower lipophilicity. `CONC(=O)c1cn(Cc2cc(O)cc(O)c2)c2ccccc2c1=O`: the pIC50 in series [4] was 6.16. For the same compound, 10 µM produced 21.7% inhibition in series [5]. For the same compound, the Activity was 88.7% in series [1], 55.8% in series [2] and 42.7% in series [3]. The same compound returned a logD in series [6] of 0.73.

`O=C(O)c1cn(Cc2ccc(Br)cc2)c2ccccc2c1=O` showed a pIC50 in series [4] of 5.82. Also, the inhibition at 10 µM in series [5] came out at 20.1%. The Activity in series [1] turned out to be 25.4%.

As to `O=C(O)c1cn(Cc2cc(O)cc(O)c2)c2ccccc2c1=O`, the pIC50 in series [4] was 7.24. Besides, the inhibition at 10 µM in series [5] was 36.6%. For the same compound, the Activity in series [1] was found to be 92.4%; in series [2], 71.1%; in series [3] it was 51.7%. The compound further yielded a logD in series [6] of 0.57.

In series [4], `O=C(NO)c1cn(Cc2ccc(Br)cc2)c2ccccc2c1=O` gave a pIC50 of 5.60. 10 µM produced 17.6% inhibition in series [5]. For the same compound, the Activity in series [1] was 27.6%.

`COc1ccc(Cn2cc(C(=O)O)c(=O)c3ccccc32)cc1` had a pIC50 in series [4] of 4.92. In addition, the Activity in series [1] is 30.5%.

`CS(=O)(=O)NC(=O)c1cn(Cc2ccccc2)c2ccccc2c1=O` had a pIC50 in series [4] of 4.82. The compound further returned an inhibition at 10 µM in series [5] of 7.9%. The Activity in series [1] was 28.7%. Moreover, in series [6], the logD came to 0.53.

`CONC(=O)c1cn(Cc2ccccc2)c2ccccc2c1=O`: the pIC50 in series [4] is 4.89. This compound had an inhibition at 10 µM in series [5] of 5.1%. In series [1], the Activity turned out to be 25.2%. Besides, the logD in series [6] came out at 1.19.

In series [4], `COc1ccc(Cn2cc(C(=O)O)c(=O)c3ccccc32)cc1OC` gave a pIC50 of 4.98. In addition, in series [5], the inhibition at 10 µM was found to be 24.8%. Moreover, the Activity in series [1] is 32.2%.

With `O=C(NO)c1cn(Cc2ccc(O)cc2)c2ccccc2c1=O`, the pIC50 in series [4] was 6.97. The same compound had an inhibition at 10 µM in series [5] of 34.6%. In addition, the figures for the Activity in series [1], in series [2] and in series [3] were 74.9%, 51.1% and 32.3%, respectively.

With `COc1ccc(Cn2cc(C(=O)NO)c(=O)c3ccccc32)cc1OC`, the pIC50 in series [4] was 4.87. In addition, the inhibition at 10 µM in series [5] was determined as 10.5%. For the same compound, the Activity in series [1] amounted to 39.1%.

With `O=C(NO)c1cn(Cc2cc(O)cc(O)c2)c2ccccc2c1=O`, the pIC50 in series [4] was 7.19. Moreover, the inhibition at 10 µM in series [5] is 27.4%. Also, the Activity in series [1] was 91%; in series [2], 72.4%; in series [3] it was 57.8%. In series [6], this compound returned a logD of 1.32.

Compound `O=C(O)c1cn(Cc2ccc(F)cc2)c2ccccc2c1=O` had a pIC50 in series [4] of 6.81. In addition, in series [5], the inhibition at 10 µM is 30.2%. Besides, the Activity in series [1] amounted to 21.4%.

The compound `COc1cc(Cn2cc(C(=O)O)c(=O)c3ccccc32)cc(OC)c1` had a pIC50 in series [4] of 5.01. In addition, the inhibition at 10 µM in series [5] turned out to be 30.1%. For the same compound, in series [1], the Activity was found to be 47.6%.

In series [4], `COc1cc(Cn2cc(C(=O)NO)c(=O)c3ccccc32)cc(OC)c1` had a pIC50 of 4.81. The same compound had an inhibition at 10 µM in series [5] of 17.2%. The Activity in series [1] amounted to 41.3%.

On to `O=C(NO)c1cn(Cc2ccc(O)c(O)c2)c2ccccc2c1=O`, for which, in series [4], the pIC50 was 6.54. The compound also displayed an inhibition at 10 µM in series [5] of 25.4%. In addition, the figures for the Activity in series [1], in series [2] and in series [3] were 88.1%, 65.1% and 51.1%, respectively.

In series [4], `O=C(NO)c1cn(Cc2ccc(F)cc2)c2ccccc2c1=O` gave a pIC50 of 6.63. Further, at 10 µM the inhibition in series [5] was 24.1%. In addition, the Activity in series [1] came to 32.1%.

Take `COc1ccc(Cn2cc(C(=O)NO)c(=O)c3ccccc32)cc1`: in series [4], the pIC50 was 4.90. For the same compound, the inhibition at 10 µM in series [5] was 7.6%. The Activity in series [1] came to 34.1%.

On to `O=C(O)c1cn(Cc2ccc(O)c(O)c2)c2ccccc2c1=O`, for which, in series [4], the pIC50 is 6.60. This compound gave an inhibition at 10 µM in series [5] of 38.6%. Further, the Activity in series [1] is 87.1%; in series [2], 61.9%; in series [3], 44.9%.

Regarding `O=C(NO)c1cn(Cc2ccccc2)c2ccccc2c1=O`, the pIC50 in series [4] was 4.90. In series [5], this compound yielded an inhibition at 10 µM of 7.1%. Moreover, the Activity in series [1] was 27.1%. The same compound had a logD in series [6] of 1.53.

In series [5], `CC(/C=C1\SC(=S)N(CC(=O)O)C1=O)=C\c1ccccc1` registered an inhibition at 10 µM of 43.1%.

As to `O=C(O)c1cn(Cc2ccccc2)c2ccccc2c1=O`, the pIC50 in series [4] was 4.96. The compound also showed an inhibition at 10 µM in series [5] of 5.8%. Further, the Activity in series [1] was 20.3%. In series [6], this compound gave a logD of 0.82.
